Results from patent US20050175550A1, “Compositions for oral use” (priority 2000, published 2005).

Tests used:
Type in all cases: cell-based
[1] = system: Escherichia coli ATCC35218; assay: MIC by agar plate dilution method on standard strains (Example 3)
Description: (§1) Drug solutions at a concentration 10 times as high as the maximum applicable concentration were prepared as original solutions of test drugs given in Table 2 (as to solvents used for this purpose, reference should be made also to Table 2). Serial two-fold dilution series of the original solutions were prepared at desired stages, and 1 ml each of the diluted drug solutions was added to 9 ml of media given in Table 3 to prepare drug plates. […] • 1) Bacterial solutions stocked at −80° C. were inoculated on agar media (as to media used, reference should be made to Table 3), and then incubated at 37° C. overnight. When desired, subculturing was conducted once more on the same agar media (by overnight incubation at 37° C.). • 2) Colonies growing on the agar media were sampled by a platinum loop, suspended in liquid media (reference should be made to Table 3) and statically incubated at 37° C. for 18 hours (preculturing). • 3) Preculturing was continued up to McFarland 0.5 (McFarland 0.5=about 10^8 CFU/ml), and then the culture broths were diluted with Muellar Hinton Broth to make 10^6 CFU/ml. 5 μl each of the diluted solutions were inoculated on the above-mentioned drug plates by an inoculator Microplanter. […] Thus, bacterial solutions at about 10^8 CFU/ml can be easily prepared by use of McFarland 0.5. Bacterial solutions at such a turbidity are commercially available, but can be easily prepared.

[2] = system: Serratia marcescens ATCC13880; assay: as above
Description: as §1

[3] = system: Haemophilus influenzae ATCC49247; assay: as above
Description: as §1

[4] = system: Streptococcus pyogenes ATCC12353; assay: as above
Description: as §1

[5] = system: Streptococcus pyogenes ATCC12385; assay: as above
Description: as §1

[6] = system: Streptococcus pneumoniae ATCC6306; assay: as above
Description: as §1

[7] = system: Klebsiella pneumoniae ATCC700603; assay: as above
Description: as §1

[8] = system: Escherichia coli ATCC25922; assay: as above
Description: as §1

[9] = system: Bacillus subtilis ATCC6633; assay: as above
Description: as §1

[10] = system: Streptococcus agalactiae ATCC13813; assay: as above
Description: as §1

[11] = system: Micrococcus luteus ATCC9341; assay: as above
Description: as §1

[12] = system: Haemophilus influenzae ATCC33533; assay: as above
Description: as §1

[13] = system: Enterococcus faecium ATCC19434; assay: as above
Description: as §1

[14] = system: Streptococcus pyogenes ATCC12344; assay: as above
Description: as §1

[15] = system: Moraxella (Branhamella) catarrhalis ATCC25240; assay: as above
Description: as §1

[16] = system: Streptococcus pneumoniae ATCC49619; assay: as above
Description: as §1

[17] = system: Staphylococcus aureus ATCC29247; assay: as above
Description: as §1

[18] = system: Streptococcus pneumoniae ATCC6303; assay: as above
Description: as §1

[19] = system: Haemophilus influenzae ATCC49766; assay: as above
Description: as §1

[20] = system: Streptococcus pneumoniae ATCC6301; assay: as above
Description: as §1

[21] = system: Staphylococcus aureus ATCC6538P; assay: as above
Description: as §1

[22] = system: Moraxella (Branhamella) catarrhalis ATCC43617; assay: as above
Description: as §1

[23] = system: Pseudomonas aeruginosa ATCC27853; assay: as above
Description: as §1

[24] = system: Haemophilus influenzae ATCC33391; assay: as above
Description: as §1

[25] = system: Enterococcus faecalis ATCC29247; assay: as above
Description: as §1

[26] = system: Streptococcus pneumoniae ATCC6302; assay: as above
Description: as §1

[27] = system: Moraxella (Branhamella) catarrhalis ATCC25238; assay: as above
Description: as §1

[28] = system: Fusobacterium nucleatum ATCC10953; assay: Antibacterial test, propagation by turbidity in broth (Example 1); details: medium containing 0.1 mM or 1.0 mM trifluoromethionine, FIG. 4
Description: (§2) 3 ml of GAM broth (Nissui Medical) containing 5 μg/ml of hemin and 1 μg/ml of menadione was separately incubated with one platinum loop each of subcultures of strains Porphyromonas gingivalis W83, ATCC33277 and M1217, and strain Fusobacterium nucleatum ATCC10953, followed by incubation at 37° C. under anaerobic conditions (10% CO2, 10% H2, 80% N2) overnight. The same fresh medium as above was inoculated with the resulting culture in such an amount that an absorbance at 550 nm of the inoculated medium could be about 0.15, followed by incubation under the same condition as above. Furthermore, the above-mentioned strains were incubated in the above-mentioned medium further containing 0.1 mM or 1.0 mM trifluoromethionine. Absorbance at 550 nm of the individual cultures was measured with time to evaluate propagation of bacteria through the turbidity of the medium. Results are shown in FIG. 1 to 4 (A to D), where the results of using the trifluoromethionine-free medium are shown by □ curve, and those of using media containing 0.1 mM and 1.0 mM trifluoromethionine, respectively, are shown by ▪ and ● curves.

[29] = system: Porphyromonas gingivalis W83, ATCC33277 and M1217; assay: as above; details: medium containing 0.1 mM or 1.0 mM trifluoromethionine, FIGS. 1-3
Description: as §2

N[C@@H](CCSC(F)(F)F)C(=O)O [TFM, Trifluoromethionine]
50 µg/mL: MIC [3] | MIC [24]
25 µg/mL: MIC [15] | MIC [19]
remarkable antibacterial effects: antibacterial effect (propagation of bacteria, absorbance at 550 nm) [28] | antibacterial effect (propagation of bacteria, absorbance at 550 nm) [29]
100 µg/mL: MIC [12] | MIC [22] | MIC [27]
>400 µg/mL: MIC [1] | MIC [2] | MIC [4] | MIC [5] | MIC [6] | MIC [7] | MIC [8] | MIC [9] | MIC [10] | MIC [11] | MIC [13] | MIC [14] | MIC [16] | MIC [17] | MIC [18] | MIC [20] | MIC [21] | MIC [23] | MIC [25] | MIC [26]
